Our source for the IC50 values is patent US9670213B2, “Pteridine ketone derivative and applications thereof as EGFR, BLK, and FLT3 inhibitor” (EAST CHINA UNIVERSITY OF SCIENCE AND TECHNOLOGY, priority 2012, dated 2017).

One assay addresses EGFR-L858R (Homo sapiens (Human), UniProt P00533, L858R). The experiment in a line: In vitro EGFR kinase activity assay (Z'-Lyte). Format: biochemical. To be noted: read-out: Inhibitory activity on EGFR kinase (IC50, nM) L858R.
The next assay addresses FLT3 (Homo sapiens (Human), UniProt P36888). The experiment in a line: FLT3 kinase activity assay (Caliper). Format: biochemical. The settings on record: read-out: Inhibitory activity on kinase (IC50, nM) FLT3. The procedure:
(§1) Preparation of 1× kinase matrix buffer and stop buffer.
(§2) Preparation of compound solution. The compound was dissolved in 100% DMSO to a concentration, which was 50 times of the final highest inhibiting-concentration. 100 μL of the compound solution as said above was transferred into wells of 96-well plate. The above compound solution was sequentially diluted to the final desired concentration. In two blank wells of same 96-well plate, 100 μL of 100% DMSO was added as no-compound and no-kinase control, and this plate was used as the original plate.
(§3) Preparation of intermediate plate. 10 μL of compound solution was transferred from the original plate to another 96-well plate as the intermediate plate; 90 μL of 1× kinase buffer was added into each well of the intermediate plate, and the intermediate plate was shaken for 10 min.
(§4) Preparation of assay plate. 5 μL of solution from each well of intermediate plate was added into a 384-well plate, and repeated controls were set.
(§5) Kinase reaction. 2.5× kinase solution and 2.5× peptide solution were prepared. 2.5× kinase solution was transferred into assay plate. Assay plate comprised 5 μL of the compound solution in 10% DMSO. 10 μL of 2.5× kinase solution was added in each well of 384-well assay plate. […] 2.5× peptide solution was added into each well. After incubated at 28° C. for an appropriate time, 25 μL of stop buffer was added to quench the reaction. Experimental data were collected in Caliper. Curve was fitted.

Another assay deals with wild-type EGFR (Homo sapiens (Human), UniProt P00533). In words: In vitro EGFR kinase activity assay (Z'-Lyte). The assay is classed as biochemical. The settings on record: EGFR WT; read-out: Inhibitory activity on EGFR kinase (IC50, nM) WT.
A further assay has as its target EGFR-L858R/T790M (Homo sapiens (Human), UniProt P00533, L858R/T790M). The experiment in a line: In vitro EGFR kinase activity assay (Z'-Lyte). The assay is classed as biochemical. To be noted: read-out: Inhibitory activity on EGFR kinase (IC50, nM) T790M/L858R.
Assay [1] deals with H1975 (non-small cell lung cancer cells, EGFR L858R/T790M). In words: Cell proliferation and growth inhibition analysis. The assay is classed as cell-based. To be noted: Homo sapiens, NCI-H1975, 72 hours, read-out: Inhibitory activity on cell proliferation (IC50, μM) H1975. Here is the method:
(§6) Cell proliferation was evaluated by MTS assay. Cells were exposed to the process conditions for 72 hours, and the number of cells for each cell line used in the experiment was adjusted according to the absorbance value (absorbance value at 490 nm was 1.3-2.2). 6 concentration gradients (0.1 nM-10 μM) were set for the compounds to be tested, with six parallel controls for each concentration.
(§7) H1975, HCC827, A549, BT474, MCF-7, SK-BR-3 cells were cultured in the corresponding medium. Upon recovery, the cells were passaged at least two times and then used in experiments. Cells in Log phase were trypsinized and resuspended in the medium. H1975 (1000 cells per well), BT474 (1500 cells per well), MCF-7 (1500 cells per well), HCC827 (2000 cells per well), SK-BR-3 (2000 cells per well), A549 (2000 cells per well) were seeded into 96-well plates, the volume was 100 μL, and 6 rows and 7 columns were set. The plate was placed in an incubator at 37° C. of 5% carbon dioxide overnight. Compounds were dissolved in DMSO to obtain the concentration of […], and then gradually diluted to obtain the concentration of compound as […], 0.1 μM, 0.01 μM, 0.001 μM, 0.0001 μM. 2 μL of compound solution was added into 998 μL of medium, and the resulting mixture was thoroughly mixed. 100 μL of mixture was added into 96-well plate. […] After the cells were cultured for 68 hours, 20 μL of MTT (5 mg/mL) was added. After 4 hours, the supernatant was discarded and 150 μL of DMSO was added. The resulting system was shaken for 10 minutes, and the plate was read with Synergy HT (Bio TeK) (OD490). The data was calculated by GraphPad Prism version 4.0, and IC50 was obtained by non-linear regression model using dose-response curve.

Assay [2] relates to HCC827 (non-small cell lung cancer cells, EGFR del E746-A750). In words: Cell proliferation and growth inhibition analysis. To be noted: Homo sapiens, 72 hours, read-out: Inhibitory activity on cell proliferation (IC50, μM) HCC827. Format: cell-based. The procedure: as §6, §7
Another assay has as its target BLK (Homo sapiens (Human), UniProt P51451). The experiment in a line: BLK kinase activity assay (Caliper). Format: biochemical. To be noted: read-out: Inhibitory activity on kinase (IC50, nM) BLK. The procedure:
as §1, §2, §3, §4, §5
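For Inhibitory activity on EGFR kinase (IC50, nM) L858R in this document: Cell-free kinase reaction with peptide substrate and ATP, 1.5 h at room temperature, then development step cleaving non-phosphorylated peptide, 10-point dilution series 0.051–1000 nM, phosphopeptide as 100% phosphorylation control.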
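For Inhibitory activity on EGFR kinase (IC50, nM) T790M/L858R in this document: Cell-free kinase reaction with peptide substrate and ATP, 1.5 h at room temperature, development cleaving unphosphorylated peptide, 10-point dilution 0.051–1000 nM, phosphopeptide as 100% phosphorylation control.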
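For Inhibitory activity on EGFR kinase (IC50, nM) WT in this document: Ten-point dose series from 5.1×10^−11 to 1.0×10^−6 mol/L, kinase reaction 1.5 h at room temperature, then 1 h development cleaving unphosphorylated peptide, phosphopeptide as 100% phosphorylation control.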

Sequence of BLK (P51451 whole entry): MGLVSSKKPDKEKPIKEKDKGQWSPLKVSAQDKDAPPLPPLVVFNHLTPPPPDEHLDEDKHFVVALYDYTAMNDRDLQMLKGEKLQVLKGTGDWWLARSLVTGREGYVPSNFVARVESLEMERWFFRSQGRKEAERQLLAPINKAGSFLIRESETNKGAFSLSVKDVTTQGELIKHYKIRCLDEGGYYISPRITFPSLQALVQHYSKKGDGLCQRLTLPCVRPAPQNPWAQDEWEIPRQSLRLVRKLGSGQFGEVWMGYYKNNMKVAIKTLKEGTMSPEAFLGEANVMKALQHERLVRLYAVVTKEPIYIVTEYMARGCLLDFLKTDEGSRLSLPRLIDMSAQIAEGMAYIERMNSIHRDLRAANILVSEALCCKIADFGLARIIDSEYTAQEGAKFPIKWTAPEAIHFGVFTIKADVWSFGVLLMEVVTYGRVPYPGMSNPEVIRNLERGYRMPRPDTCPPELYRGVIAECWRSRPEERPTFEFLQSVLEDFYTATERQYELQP
Sequence of wild-type EGFR (P00533 25-1210): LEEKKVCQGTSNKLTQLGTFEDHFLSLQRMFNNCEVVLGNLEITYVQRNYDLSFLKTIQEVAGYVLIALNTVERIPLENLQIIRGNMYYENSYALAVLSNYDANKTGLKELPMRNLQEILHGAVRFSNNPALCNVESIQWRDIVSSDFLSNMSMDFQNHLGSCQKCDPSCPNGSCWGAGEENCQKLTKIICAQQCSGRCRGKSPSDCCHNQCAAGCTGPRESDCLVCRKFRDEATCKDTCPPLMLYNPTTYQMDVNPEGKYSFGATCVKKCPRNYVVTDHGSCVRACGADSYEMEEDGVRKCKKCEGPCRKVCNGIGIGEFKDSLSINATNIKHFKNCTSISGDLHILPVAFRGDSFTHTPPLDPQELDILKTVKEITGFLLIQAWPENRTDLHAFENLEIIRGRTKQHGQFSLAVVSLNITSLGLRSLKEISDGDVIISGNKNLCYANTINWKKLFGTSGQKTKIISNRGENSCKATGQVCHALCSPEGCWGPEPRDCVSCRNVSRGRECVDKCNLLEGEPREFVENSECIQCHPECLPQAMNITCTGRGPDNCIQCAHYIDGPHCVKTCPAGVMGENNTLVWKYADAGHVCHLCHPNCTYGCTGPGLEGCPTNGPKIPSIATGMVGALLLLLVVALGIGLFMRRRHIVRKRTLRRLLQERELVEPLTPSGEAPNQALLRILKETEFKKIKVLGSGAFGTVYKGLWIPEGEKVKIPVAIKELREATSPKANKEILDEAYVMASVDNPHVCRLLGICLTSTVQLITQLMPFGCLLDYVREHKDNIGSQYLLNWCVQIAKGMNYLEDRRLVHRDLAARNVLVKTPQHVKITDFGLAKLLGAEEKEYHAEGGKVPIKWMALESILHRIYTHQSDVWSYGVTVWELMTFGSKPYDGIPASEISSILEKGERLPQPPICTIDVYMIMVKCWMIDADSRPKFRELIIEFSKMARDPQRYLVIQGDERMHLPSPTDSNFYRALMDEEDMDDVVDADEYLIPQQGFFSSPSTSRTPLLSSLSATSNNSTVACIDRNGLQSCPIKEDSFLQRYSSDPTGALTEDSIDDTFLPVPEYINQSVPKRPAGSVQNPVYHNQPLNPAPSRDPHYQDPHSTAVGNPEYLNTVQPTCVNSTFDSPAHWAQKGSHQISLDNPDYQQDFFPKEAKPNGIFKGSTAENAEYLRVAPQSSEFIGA
Sequence of EGFR-L858R/T790M (P00533 25-1210 T790M/L858R): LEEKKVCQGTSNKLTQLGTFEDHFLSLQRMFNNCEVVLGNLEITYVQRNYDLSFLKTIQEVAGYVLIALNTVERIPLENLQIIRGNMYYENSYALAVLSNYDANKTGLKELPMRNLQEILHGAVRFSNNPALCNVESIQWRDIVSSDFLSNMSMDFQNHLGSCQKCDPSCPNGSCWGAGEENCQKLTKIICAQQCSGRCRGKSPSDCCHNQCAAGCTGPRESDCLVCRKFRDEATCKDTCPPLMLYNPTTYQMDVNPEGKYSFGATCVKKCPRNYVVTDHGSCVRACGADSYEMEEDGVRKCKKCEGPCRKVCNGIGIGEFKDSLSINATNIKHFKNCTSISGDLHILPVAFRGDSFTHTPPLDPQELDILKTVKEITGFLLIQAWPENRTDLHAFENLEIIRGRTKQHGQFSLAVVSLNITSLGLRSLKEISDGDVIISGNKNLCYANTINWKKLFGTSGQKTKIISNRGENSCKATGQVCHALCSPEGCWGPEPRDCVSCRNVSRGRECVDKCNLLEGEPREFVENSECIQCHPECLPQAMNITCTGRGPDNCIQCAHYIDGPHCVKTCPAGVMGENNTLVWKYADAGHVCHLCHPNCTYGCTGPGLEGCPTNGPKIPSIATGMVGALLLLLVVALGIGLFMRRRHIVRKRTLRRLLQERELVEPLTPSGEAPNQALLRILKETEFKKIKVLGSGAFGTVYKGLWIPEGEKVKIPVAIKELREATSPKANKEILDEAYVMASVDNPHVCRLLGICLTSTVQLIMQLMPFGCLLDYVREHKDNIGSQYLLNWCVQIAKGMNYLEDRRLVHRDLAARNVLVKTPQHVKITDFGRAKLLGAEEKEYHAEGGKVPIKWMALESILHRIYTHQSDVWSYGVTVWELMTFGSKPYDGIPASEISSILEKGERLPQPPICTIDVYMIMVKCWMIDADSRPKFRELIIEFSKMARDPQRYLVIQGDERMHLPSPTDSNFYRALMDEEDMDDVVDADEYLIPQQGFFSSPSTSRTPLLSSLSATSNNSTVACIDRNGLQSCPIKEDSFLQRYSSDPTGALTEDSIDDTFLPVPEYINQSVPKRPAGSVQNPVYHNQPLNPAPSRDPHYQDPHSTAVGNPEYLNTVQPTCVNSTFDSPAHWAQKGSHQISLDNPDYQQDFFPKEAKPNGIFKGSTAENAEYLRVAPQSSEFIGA
Sequence of EGFR-L858R (P00533 25-1210 L858R): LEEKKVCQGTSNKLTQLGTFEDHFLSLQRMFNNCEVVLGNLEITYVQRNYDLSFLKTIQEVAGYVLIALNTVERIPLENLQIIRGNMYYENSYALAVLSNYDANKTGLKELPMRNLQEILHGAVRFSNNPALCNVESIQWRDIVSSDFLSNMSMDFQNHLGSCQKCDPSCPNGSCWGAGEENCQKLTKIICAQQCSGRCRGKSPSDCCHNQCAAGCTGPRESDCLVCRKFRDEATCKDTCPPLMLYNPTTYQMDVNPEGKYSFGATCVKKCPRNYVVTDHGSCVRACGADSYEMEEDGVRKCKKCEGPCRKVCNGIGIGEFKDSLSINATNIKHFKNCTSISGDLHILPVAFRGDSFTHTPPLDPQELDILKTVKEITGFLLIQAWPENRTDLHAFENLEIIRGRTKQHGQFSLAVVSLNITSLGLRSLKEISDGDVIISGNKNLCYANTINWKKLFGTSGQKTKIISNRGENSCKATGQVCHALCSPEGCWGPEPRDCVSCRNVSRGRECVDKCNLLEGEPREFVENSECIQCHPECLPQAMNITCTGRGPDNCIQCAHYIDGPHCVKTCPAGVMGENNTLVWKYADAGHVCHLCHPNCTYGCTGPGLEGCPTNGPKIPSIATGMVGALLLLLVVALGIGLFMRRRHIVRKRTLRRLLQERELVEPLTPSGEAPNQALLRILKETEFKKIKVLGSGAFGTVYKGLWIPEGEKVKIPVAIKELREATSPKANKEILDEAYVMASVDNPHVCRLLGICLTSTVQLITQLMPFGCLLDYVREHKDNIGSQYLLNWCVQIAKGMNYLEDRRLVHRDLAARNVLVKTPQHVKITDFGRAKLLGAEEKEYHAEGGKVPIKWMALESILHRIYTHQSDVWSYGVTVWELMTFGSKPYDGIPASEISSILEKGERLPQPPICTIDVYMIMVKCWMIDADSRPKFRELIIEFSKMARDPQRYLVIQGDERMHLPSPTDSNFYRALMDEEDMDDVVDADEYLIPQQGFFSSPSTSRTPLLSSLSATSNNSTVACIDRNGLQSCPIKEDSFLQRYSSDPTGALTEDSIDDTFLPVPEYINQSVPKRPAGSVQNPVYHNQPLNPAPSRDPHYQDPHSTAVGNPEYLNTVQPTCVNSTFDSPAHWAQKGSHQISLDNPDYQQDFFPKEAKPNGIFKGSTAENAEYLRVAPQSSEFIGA
Sequence of FLT3 (P36888 27-993): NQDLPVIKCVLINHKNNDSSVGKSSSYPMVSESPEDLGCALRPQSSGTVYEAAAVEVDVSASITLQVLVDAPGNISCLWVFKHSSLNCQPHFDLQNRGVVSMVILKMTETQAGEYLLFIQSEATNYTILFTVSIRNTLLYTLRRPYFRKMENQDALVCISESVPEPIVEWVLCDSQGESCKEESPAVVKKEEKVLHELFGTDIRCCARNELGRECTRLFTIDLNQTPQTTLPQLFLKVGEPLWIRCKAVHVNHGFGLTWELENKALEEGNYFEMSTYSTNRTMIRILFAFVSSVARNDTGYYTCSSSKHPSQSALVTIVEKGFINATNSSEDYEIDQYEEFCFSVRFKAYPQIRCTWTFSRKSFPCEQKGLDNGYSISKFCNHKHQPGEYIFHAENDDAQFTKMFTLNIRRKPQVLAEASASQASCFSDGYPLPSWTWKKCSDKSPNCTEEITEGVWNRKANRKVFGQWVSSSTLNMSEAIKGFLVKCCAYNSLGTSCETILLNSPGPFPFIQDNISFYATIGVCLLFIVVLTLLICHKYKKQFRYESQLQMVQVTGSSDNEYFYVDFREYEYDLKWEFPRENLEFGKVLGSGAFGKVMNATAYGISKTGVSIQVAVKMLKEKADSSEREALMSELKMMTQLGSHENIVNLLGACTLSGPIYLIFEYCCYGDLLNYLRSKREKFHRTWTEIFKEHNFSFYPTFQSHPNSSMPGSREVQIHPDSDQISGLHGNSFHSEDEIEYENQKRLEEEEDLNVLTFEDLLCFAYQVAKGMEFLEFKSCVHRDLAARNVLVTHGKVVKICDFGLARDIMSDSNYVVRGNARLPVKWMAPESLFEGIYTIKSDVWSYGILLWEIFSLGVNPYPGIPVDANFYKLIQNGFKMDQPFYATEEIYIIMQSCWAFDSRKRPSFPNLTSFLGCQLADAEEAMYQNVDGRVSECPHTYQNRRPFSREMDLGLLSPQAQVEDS

For `C=CC(=O)Nc1ccc(-n2c(=O)cnc3cnc(Nc4ccc(N5CCN(C)CC5)cc4)nc32)cc1` [Compound 019, N-(4-(2-(4-(4-methyl-1-piperazinyl)-phenylamino)-7-oxo-8(7H)-pteridin-yl)phenyl) acrylamide], the IC50 was determined as 6380 nM on EGFR-L858R; 51 nM at FLT3; 1260 nM at wild-type EGFR; 738 nM at EGFR-L858R/T790M; 8.87 µM in assay [1]; 0.676 µM in assay [2]. Also, the IC50 at BLK was determined as 796 nM.

As to `C=CC(=O)Nc1cccc(-n2c(=O)cnc3cnc(Nc4ccc(N5CCCCC5)cc4)nc32)c1` [Compound 021, N-(3-(7-oxo-2-(4-(1-piperidinyl)phenylamino)-8(7H)-pteridinyl)phenyl) acrylamide], the IC50 at EGFR-L858R came to 11.7 nM; on FLT3, 878 nM; at wild-type EGFR, 19.7 nM; at EGFR-L858R/T790M it was 5.49 nM; in assay [1], 0.238 µM; in assay [2], 0.02 µM. For the same molecule, on BLK, the IC50 was 83 nM.

Turning to `C=CC(=O)Nc1cccc(-n2c(=O)cnc3cnc(Nc4ccc(N5CCCC5)cc4)nc32)c1` [Compound 022, N-(3-(7-oxo-2-(4-(1-pyrrolidinyl)phenylamino)-8(7H)-pteridin-yl)phenyl) acrylamide], the IC50 on EGFR-L858R came to 12.6 nM; on FLT3, 1080 nM; on wild-type EGFR, 23.3 nM; at EGFR-L858R/T790M it was 5.33 nM; in assay [1], 0.531 µM; in assay [2], 0.073 µM. In addition, the IC50 on BLK stood at 98 nM.

Take `C=CC(=O)Nc1cccc(-n2c(=O)cnc3cnc(Nc4ccc(N(CC)CC)cc4)nc32)c1` [Compound 023, N-(3-(2-(4-(diethylamino)phenylamino)-7-oxo-8(7H)-pteridin-yl)phenyl) acrylamide]: the IC50 on EGFR-L858R worked out at 16.3 nM; at FLT3 it was 1760 nM; on wild-type EGFR, 23.1 nM; on EGFR-L858R/T790M, 5.57 nM; in assay [1], 0.477 µM; in assay [2] it was 0.031 µM. Also, the IC50 at BLK worked out at 83 nM.

Consider `C=CC(=O)Nc1cccc(-n2c(=O)cnc3cnc(Nc4ccc(NC(C)=O)cc4)nc32)c1` [Compound 024, N-(3-(2-(4-(acetylamino)-phenylamino)-7-oxo-8(7H)-pteridin-yl)phenyl) acrylamide], for which the IC50 was found to be 13.4 nM at EGFR-L858R; 3550 nM at FLT3; 15.8 nM at wild-type EGFR; 5.12 nM on EGFR-L858R/T790M; 6.08 µM in assay [1]; 0.229 µM in assay [2]. In addition, the IC50 at BLK stood at 148 nM.

On to `C=CC(=O)Nc1cccc(-n2c(=O)cnc3cnc(Nc4ccc(C(N)=O)cc4)nc32)c1` [Compound 025, 4-(8-(3-acrylamidephenyl)-7-oxo-7,8-dihydropteridinyl-2-amino)benzamide], for which the IC50 was determined as 9.64 nM on EGFR-L858R; 1790 nM on FLT3; 12.7 nM at wild-type EGFR; 4.39 nM on EGFR-L858R/T790M; 7.3 µM in assay [1]; 0.604 µM in assay [2]. Moreover, the IC50 at BLK stood at 76 nM.

Turning to `C=CC(=O)Nc1cccc(Nc2ncc3ncc(=O)n(-c4ccc(OC)cc4)c3n2)c1` [Compound 027, N-(3-(8-(4-methoxyphenyl)-7-oxo-7,8-dihydro-pteridin-2-amino)phenyl) acrylamide], the IC50 at EGFR-L858R is 1710 nM; at FLT3 it was 119 nM; on wild-type EGFR, 2000 nM; at EGFR-L858R/T790M, 1200 nM; in assay [1] it was 3.05 µM; in assay [2] it was 0.408 µM. Moreover, the IC50 on BLK came out at 5660 nM.

With `COc1ccc(-n2c(=O)cnc3cnc(Nc4cccc(N)c4)nc32)cc1` [Compound 028, 2-(3-aminophenylamino)-8-(4-methoxyphenyl)-7(8H)-pteridin-one], the IC50 at EGFR-L858R was determined as 18900 nM; on FLT3, 34 nM; on wild-type EGFR, 10600 nM; on EGFR-L858R/T790M, 3530 nM; in assay [1], 82.8 µM; in assay [2], 15.9 µM. On BLK, the IC50 came to 7950 nM.

Consider `C=CC(=O)Nc1ccc(Nc2ncc3ncc(=O)n(-c4ccc(OC)cc4)c3n2)cc1` [Compound 029, N-(4-(8-(4-methoxyphenyl)-7-oxo-7,8-dihydro-pteridin-2-amino)phenyl) acrylamide], for which the IC50 was 1320 nM at EGFR-L858R; 100 nM on FLT3; above 10000 nM on wild-type EGFR; above 10000 nM at EGFR-L858R/T790M; 0.953 µM in assay [1]; 0.543 µM in assay [2]. Also, on BLK, the IC50 is above 10000 nM.

On to `COc1ccc(-n2c(=O)cnc3cnc(Nc4ccc(N)cc4)nc32)cc1` [Compound 030, 2-(4-aminophenylamino)-8-(4-methoxyphenyl)-7(8H)-pteridin-one], for which the IC50 on EGFR-L858R worked out at 23800 nM; at FLT3, 43 nM; on wild-type EGFR, 3420 nM; on EGFR-L858R/T790M, 6750 nM; in assay [1] it was 15.3 µM; in assay [2], 4.65 µM. Moreover, the IC50 on BLK was above 10000 nM.

On to `C=CC(=O)Nc1ccc(-n2c(=O)cnc3cnc(Nc4ccc(N5CCN(C)CC5)cc4OC)nc32)cc1` [Compound 031], for which the IC50 at EGFR-L858R is 376 nM; on FLT3, 180 nM; on wild-type EGFR, 429 nM; on EGFR-L858R/T790M, 229 nM; in assay [1], 2.88 µM; in assay [2] it was 0.466 µM. The IC50 on BLK was determined as 812 nM.
